Data from US20070207225A1 (priority 2006, published 2007).

Tests used:
estrogen receptor ERβ = estrogen receptor ERβ (Homo sapiens, UniProt Q92731); details: competition assays, literature (Morito et al. 2001); cited from earlier work
estrogen receptor ERα = molecular target: T1, estrogen receptor ERα (Homo sapiens, UniProt P03372); details: competition assays, literature (Morito et al. 2001); cited from earlier work
T1 sequence (P03372 1-595): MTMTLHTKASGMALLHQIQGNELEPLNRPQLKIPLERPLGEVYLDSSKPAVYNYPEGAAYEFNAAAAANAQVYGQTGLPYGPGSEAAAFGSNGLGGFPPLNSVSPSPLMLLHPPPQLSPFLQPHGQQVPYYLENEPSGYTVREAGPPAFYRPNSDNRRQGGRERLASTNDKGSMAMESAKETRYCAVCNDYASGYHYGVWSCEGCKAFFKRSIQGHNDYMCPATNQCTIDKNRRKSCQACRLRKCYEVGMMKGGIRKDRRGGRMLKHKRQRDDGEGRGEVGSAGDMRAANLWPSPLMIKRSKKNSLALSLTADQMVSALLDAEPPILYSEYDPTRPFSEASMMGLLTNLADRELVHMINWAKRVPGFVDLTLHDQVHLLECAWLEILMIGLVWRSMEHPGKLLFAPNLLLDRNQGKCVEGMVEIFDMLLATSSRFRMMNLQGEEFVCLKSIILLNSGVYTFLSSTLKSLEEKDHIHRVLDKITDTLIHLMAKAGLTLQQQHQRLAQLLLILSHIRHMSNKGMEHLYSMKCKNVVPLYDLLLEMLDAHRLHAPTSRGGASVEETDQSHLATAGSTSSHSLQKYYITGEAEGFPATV

fasting glucose = test: Fasting glucose levels in postmenopausal women, six month treatment (enzymatic kit); format: in vivo, human; details: for Fasting Glucose: n = 30, mean±SEM
Text: (§1) Cardiovascular risk markers, according to various embodiments of the present invention, may comprise fasting insulin levels, fasting glucose levels, insulin resistance levels, osteoprotegerin levels, sex hormone-binding globulin levels, fibrinogen levels, estradiol levels and/or the like. […] See Crisafulli A., Altavilla D., Marini H., Bitto A., Cucinotta D., Frisina N., Corrado F., D'Anna R., Squadrito G., Adamo E., Marini R., Romeo A., Cancellieri F., Buemi M., Squadrito F., Menopause, The Journal of the North American Menopause Society, Vol. 12 No. 2 pp. 186-192.
(§2) Prior to this six month period, participants in the study were placed on a standard fat-reduced diet for four-weeks, which constituted a stabilization process.
To measure fasting glucose levels, serum glucose was measured by an enzymatic kit (BioSystemSA, Barcelona, Spain), (intra-assay CV 1%; interassay CV 1.8%; lower detection limit, 0.0126 mmol/L). Glucose in the sample produces, by means of the coupled reactions, a colored complex that can be spectrophotometrically measured.
(§3) Data was presented as mean±SEM, and the significance of the difference was assessed by analysis of variance, where a value of P less than 0.05 was considered statistically significant.

fibrinogen = test: Fibrinogen levels in postmenopausal women, six month treatment; format: in vivo, human; details: for Fibrinogen: n = 30, mean±SEM
Text: as §1, §2
To measure fibrinogen levels, automated routine procedures were utilized.
as §3

fasting insulin = test: Fasting insulin levels in postmenopausal women, six month treatment (ELISA); format: in vivo, human; details: for Fasting Insulin: n = 30, mean±SEM
Text: as §1, §2
To measure fasting insulin levels, insulin was measured by a commercially available ELISA kit according to the protocol of the manufacturer (DRG Diagnostik, Frauenberg Germany) (intraassay CV 4%; interassay CV 6%; lower detection limit, <1.5 μlU/ml).
as §3

osteoprotegerin = test: Osteoprotegerin levels in postmenopausal women, six month treatment (ELISA); format: in vivo, human; details: for Osteoprotegerin: n = 30, mean±SEM
Text: as §1, §2
To measure osteoprotegerin levels, a commercially available ELISA kit according to the protocol of the manufacturer (Immunodiagnostik Bensheim Germany) was utilized. This assay detects monomeric, dimeric, and ligand-bound forms of OPG (intra-assay CV 5%; interassay CV 6%; lower detection limit, 0.14 pmol/l).
as §3

C-reactive protein = test: Serum C-reactive protein in osteopenic women, six month study (immunochemiluminescent assay); format: in vivo, human
Text: (§4) Inflammatory markers, according to various representative embodiments of the present invention, may comprise G-reactive proteins and/or homocysteine and/or the like. […] Prior to the six month period, participants in the study were placed on a standard fat-reduced diet for four-weeks, which constituted a stabilization process. The participants were then randomly assigned to receive either genistein, HRT or a placebo. Throughout the study period, samples were obtained while participants were fasting to minimize dietary effects. The samples were used to measure serum C-reactive protein and plasma homocysteine.
Serum C-reactive protein was measured using an immunochemiluminescent assay (Immulite DPC, Los Angeles, Calif., USA). Samples were stored after separation at −80° C. until assayed. Sensitivity was 0.07 μg/ml with intra- and interassay coefficient of variations of 3.1 and 5.7%, respectively. The reference interval was 0.20-5.10 μg/ml.
(§5) For statistical evaluation of the serum C-reactive protein and homocysteine, a two-way ANOVA with Bonferroni post-test was performed.

homocysteine = test: Plasma homocysteine in osteopenic women, six month study (immunochemiluminescent assay); format: in vivo, human
Text: as §4, with “The participants were then randomly assigned to receive either genistein, HRT or a placebo.” left out
Plasma homocysteine was measured using an immunochemiluminescent assay (Immulite DPC, Los Angeles, Calif., USA). Samples were stored after separation at −80° C. until assayed. Homocysteine was assayed on plasma samples after treatment with S-adenosyl-L-homocysteine (SAH) hydrolase and dithiothreitol (DTT) solution. EDTA plasma was separated from the cells as soon as possible after collection. Samples were stored on ice between the time of sampling and centrifugation.
as §5

[1] = test system: sex hormone-binding globulin; test: Sex hormone-binding globulin levels in postmenopausal women, six month treatment (immunoradiometric assay); format: in vivo, human; details: for Sex Hormone Binding Globulin: n = 30, mean±SEM
Text: as §1, §2
To measure sex hormone-binding globulin levels, an immunoradiometric assay (RADIM SPA, Rome, Italy) (intra-assay CV 4%; interassay CV 5%; lower detection limit, 2.5 nmol/L) was used.
as §3

insulin resistance = test: Insulin resistance (HOMA-IR) in postmenopausal women, six month treatment; format: in vivo, human; details: for Insulin resistance: HOMA-IR, n = 30, mean±SEM
Text: as §1, §2
To measure insulin resistance levels, insulin was measured by a commercially available ELISA kit according to the protocol of the manufacturer (DRG Diagnostik, Frauenberg Germany) (intraassay CV 4%; interassay CV 6%; lower detection limit, <1.5 μlU/ml). Serum glucose was measured by an enzymatic kit (BioSystemSA, Barcelona, Spain), (intra-assay CV 1%; interassay CV 1.8%; lower detection limit, 0.0126 mmol/l). Glucose in the sample produces, by means of the coupled reactions, a colored complex that can be spectrophotometrically measured. Insulin resistance was calculated using the Homeostasis Model Assessment method (HOMA-IR=(insulin×glucose)/22.5).
as §3

[2] = Plasma genistein levels in postmenopausal women, six month treatment (HPLC-UV); format: in vivo, human; details: for Plasma Genistein: baseline, prior to six month treatment, n = 30
Text: as §1, §2
(§6) The assay was performed by using an HPLC method with UV detection.
as §3

estradiol = test: Estradiol levels in postmenopausal women, six month treatment (HPLC-UV); format: in vivo, human; details: for Estradiol: baseline, prior to six month treatment, n = 30
Text: as §1, §2, §6, §3

[3] = after six months, genistein 54 mg/d
[4] = baseline, prior to six month treatment
[5] = after six months, genistein 54 mg/d, listed as genistein
[6] = baseline to six months, not taking uncertainties into account
[7] = baseline, prior to six month treatment, listed as genistein
[8] = osteopenic women, after six months, genistein 54 mg/day or HRT, mean ± SE
[9] = osteopenic women, before treatment (baseline), n = 30, mean ± SE

estrogen receptor ERβ, sequence (Q92731 whole entry): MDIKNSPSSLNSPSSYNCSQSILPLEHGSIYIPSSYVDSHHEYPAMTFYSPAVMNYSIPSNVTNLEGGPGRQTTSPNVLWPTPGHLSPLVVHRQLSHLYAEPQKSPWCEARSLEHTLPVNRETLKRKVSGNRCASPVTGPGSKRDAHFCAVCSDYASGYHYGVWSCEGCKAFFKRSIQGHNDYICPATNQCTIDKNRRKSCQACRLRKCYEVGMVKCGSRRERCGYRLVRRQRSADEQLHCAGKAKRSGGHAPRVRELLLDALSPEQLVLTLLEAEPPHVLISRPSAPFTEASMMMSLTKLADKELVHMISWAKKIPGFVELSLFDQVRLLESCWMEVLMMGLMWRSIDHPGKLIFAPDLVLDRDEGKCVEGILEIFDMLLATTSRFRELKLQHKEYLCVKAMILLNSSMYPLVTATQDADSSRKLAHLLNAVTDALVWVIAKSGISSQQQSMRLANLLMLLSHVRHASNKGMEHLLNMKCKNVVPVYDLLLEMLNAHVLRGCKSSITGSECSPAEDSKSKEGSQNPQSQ

In the case of `Oc1ccc([C@H]2COc3cc(O)ccc3C2)cc1` [equol], the “Binding to estrogen receptor ERβ” value (estrogen receptor ERβ) is listed as “binding similar to the isoflavones, but lower than genistein” and the “Binding to estrogen receptor ERα” value (estrogen receptor ERα) is listed as “binding similar to the isoflavones, but lower than genistein”.

In the case of `O=C1c2c(O)cc(O)cc2OCC1c1ccc(O)cc1` (stereo not shown) [dihydrogenistein], the “Binding to estrogen receptor ERβ” value (estrogen receptor ERβ) is given as “binding similar to the isoflavones, but lower than genistein” and the “Binding to estrogen receptor ERα” value (estrogen receptor ERα) is given as “binding similar to the isoflavones, but lower than genistein”.

In the case of `O=c1c(-c2ccc(O)cc2)coc2cc(O)cc(O)c12` [Genistein, 4′,5,7-Trihydroxyisoflavone 5,7-Dihydroxy-3-(4-hydroxyphenyl)-4H-1-benzopyran-4-one], the “Decrease in levels of fasting glucose” value (fasting glucose; after six months of treatment, P<0.001 as compared to placebo, FIG. 5) is reported as 8.7±2.3%, the “Fasting Glucose” value (fasting glucose; [3]) is reported as 4.3 ± 0.10 and the “Fasting Glucose” value (fasting glucose; [4]) is reported as 4.74 ± 0.11. The Fibrinogen (fibrinogen; [3]) was 3.18 ± 0.12 g/L, the Fibrinogen (fibrinogen; [5]) was 3.18 ± 0.12 g/L and the “Decrease of fibrinogen levels” value (fibrinogen; [6]) was about 11.7%. For the same molecule, the Fibrinogen (fibrinogen; [4]) was 3.6 ± 0.12 g/L, the Fibrinogen (fibrinogen; [7]) was 3.6 ± 0.12 g/L and the “Decrease of fasting insulin levels” value (fasting insulin; after six months, FIG. 6) was −12±3.33%. The “Fasting Insulin” value (fasting insulin; [3]) was 6.24 ± 0.45, the “Fasting Insulin” value (fasting insulin; [4]) was 7 ± 0.55 and the “Decrease of osteoprotegerin levels” value (osteoprotegerin; after six months, FIG. 8) was −2±0.3%. The Osteoprotegerin (osteoprotegerin; [3]) was 4.4 ± 0.11, the Osteoprotegerin (osteoprotegerin; [4]) was 4.67 ± 0.13 and the “C-reactive protein level, change from baseline” value (C-reactive protein; after 6 months of treatment) was “no significant differences at the end of treatment from baseline”. For the same molecule, the “Serum C-reactive protein (CRP), After” value (C-reactive protein; [8]) was 2.13 ± 0.45 mg/L, the “Serum C-reactive protein (CRP), Before” value (C-reactive protein; [9]) was 1.73 ± 0.31 mg/L and the “Plasma homocysteine mean value, change from baseline” value (homocysteine; after six months, difference not statistically significant (P>0.05)) was “slightly decreased from baseline”. For the same molecule, the “Plasma homocysteine, After” value (homocysteine; [8]) was 10.72 ± 0.46 µmol/L, the “Plasma homocysteine, Before” value (homocysteine; [9]) was 11.36 ± 0.39 µmol/L and the “Sex Hormone Binding Globulin” value [1, 3] was 63 ± 3.83 nmol/L. The “Sex Hormone Binding Globulin” value [1, 5] was 63 ± 3.83 nmol/L, the “Decrease of sex hormone binding globulin levels” value [1, 6] was about 11.3% and the “Sex Hormone Binding Globulin” value [1, 4] was 71 ± 4.2 nmol/L. For the same molecule, the “Sex Hormone Binding Globulin” value [1, 7] was 71 ± 4.2 nmol/L, the “Decrease of insulin resistance levels” value (insulin resistance; after six months, FIG. 7) was −14±5.8% and the Insulin resistance (insulin resistance; [3]) was 1.18 ± 0.08. The Insulin resistance (insulin resistance; [4]) was 1.47 ± 0.12, the “Increase in plasma genistein levels after 6 months of treatment” value ([2]; 6 months vs baseline) was “approximately 60%” and the “Plasma Genistein” value [2] was 0.07 ± 0.004 µmol/L. The “Plasma Genistein” value ([2]; listed as genistein) was “approximately 0.75 μmol/l”, the concentration at 6 months ([2]; female, human, in vivo, 54 mg/d) was about 1200 nM and the “Estradiol levels, six month readings” value (estradiol; after 6 months, genistein 54 mg/d, FIG. 4A) was “approximately 78 pmol/L”. For the same molecule, the Estradiol (estradiol) was 73 ± 2.19 pmol/L, the Estradiol (estradiol; listed as genistein) was “approximately 74 pmol/L” and the “Effect on estradiol levels” value (estradiol; given over a six month period, FIG. 4A) was “does not significantly elevate estradiol levels”.
